Experimental data: patent US20260199214A1, “Personal Care Compositions And Methods For The Same” (Colgate-Palmolive Company, priority 2019, published 2026)

System: neonatal human epidermal keratinocytes (HEKn)
Assay: Intracellular ROS by fluorescence microscopy in keratinocytes exposed to urban dust, with niacinamide and/or FSO (Example 2)
Assay type: cell-based
Details: HEKn cells, 200 μg/mL UD, about one hour exposure; niacinamide/FSO concentration per sample
Experimental: An in vitro study was conducted to analyze the skin protecting benefits of varying concentrations of niacinamide and/or FSO. Particularly, an in vitro study was conducted to analyze the efficacy of varying concentrations of niacinamide and/or FSO in reducing and/or preventing ROS in and on the skin.
To conduct the study, neonatal human epidermal keratinocytes (HEKn) were grown in standard well plates having glass bottoms coated with collagen I. The HEKn were cultured in EpiLife™ media supplemented with human keratinocyte growth supplements (HKGS), both of which are commercially available from ThermoFisher Scientific of Waltham, MA. Stock solutions of FSO, niacinamide, and urban dust (UD) were prepared for the treatment of the keratinocytes. It should be appreciated that the UD is representative of particulate matter (PM) pollution.
The presence or amount of intracellular reactive oxygen species (ROS) was measured using fluorescence microscopy. […] After exposure to the oxidative stress detection reagent and the FSO, niacinamide, and/or UD, the keratinocytes were washed twice with a wash buffer and imaged via fluorescence in the wash buffer. Live adherent cells were imaged using GFP excitation/emission filters, and the ROS levels were quantified from raw images using ImageJ software.

| Structure (SMILES) | ROS Levels (%) Relative to UD Alone |
| --- | --- |
| NC(=O)c1cccnc1 [Sample 13, niacinamide] | −10.79% |
| NC(=O)c1cccnc1 [Sample 14, niacinamide] | −3.89% |
